test system: HRV14; assay: Inhibitory activity against human rhinovirus infection and replication (quantitative real-time PCR); format: cell-based; conditions: Human rhinovirus sp., MRC5; 100 nmol/L test compound; MRC-5 cells infected with HRV14 at MOI=0.2; 48 hours; viral load normalized to 18s rRNA; read-out: Percent Inhibition
Description: Evaluation of inhibitory activity against human rhinovirus infection and replication (by quantitative real-time PCR)
A required amount of a test compound was weighed off and dissolved in dimethyl sulfoxide (DMSO) to yield a 10 mmol/L stock solution. Next, the stock solution was diluted with a medium for viral infection (minimum essential medium (MEM) supplemented with 2% fetal bovine serum, 5% Tryptose phosphate broth, and 30 mmol/L MgCl2) to prepare 100 nmol/L and 1000 nmol/L of test compound solutions. MRC-5 (human fetal lung fibroblast: ATCC) was suspended at a density of 30000 cells/mL in cell culture medium (MEM supplemented with 10% fetal bovine serum), and 625 μL of the suspension per well was seeded into a 24-well cell culture plate and cultured at 37° C. in 5% CO2. After 72 hours, it was confirmed that the plate had become 80% confluent. The plate was washed with 625 μL of phosphate-buffered physiological saline (Ca/Mg-free; PBS-) once, and 625 μL of the test compound solution prepared just before use was immediately added to the plate. After 30 minutes, the medium was removed followed by addition of 187.5 μL of the test compound solution that had been prepared such that the cells were infected with HRV14 (ATCC) at multiplicity of infection (MOI)=0.2. The cells were then cultured at 35° C. in 5% CO2. After additional 2 hours, 625 μL of the test compound solution prepared just before use was added, and the cells were cultured at 35° C. in 5% CO2. After 48 hours, the cells were washed with 625 μL of PBS- once, and total RNA was extracted from the cells using RNeasy (R) plus kit (Qiagen) according to the manufacturer's instruction. Subsequently, cDNA was synthesized using High-Capacity cDNA Reverse Transcription Kit (Thermo Fisher Scientific). Finally, quantitative real-time PCR was performed in 7500 Fast Real-time PCR system (Life technologies) to measure HRV14 and 18s rRNA. The measurement protocol consisted of the initial denaturation phase at 95° C. for 20 seconds followed by 40 cycles of the denaturation step at 95° C. for 3 seconds and the annealing/elongation step at 60° C. for 30 seconds. The primers used were HRV14 forward primer set forth in SEQ ID NO: 1 and HRV14 reverse primer set forth in SEQ ID NO: 2, and the probe is set forth in SEQ ID NO: 3.
18s rRNA was measured using Eukaryotic 18S rRNA Endogenous Control (Applied Biosystems). According to Equation 1, 18s ribosomal RNA was used as an internal standard to normalize the viral load of HRV14: Viral load of HRV14=The amount of HRV14 in virus-infected cells/the amount of 18s rRNA in virus-infected cells Equation 1
Inhibitory activity of test compounds was calculated as a percent inhibition (%) according to Equation 2: Percent inhibition (%)=[the viral load of HRV in virus-infected cells in the absence of the test compound −the viral load of HRV in virus-infected cells in the presence of the test compound]/[the viral load of HRV in virus-infected cells in the absence of the test compound]×100 Equation 2
The results of using 100 nmol/L test compound solutions were shown in the tables below according to Examples. In the tables, percent inhibition was expressed as follows: percent inhibition >80%: +++, 80%≥percent inhibition >50%: ++, and 50%≥percent inhibition:+.

Row | SMILES | inhibition at 0.1 µM
1 | COc1ccc(-c2c(C)nc3sc(C(C)(C)O)nn23)cc1S(=O)(=O)[C@H]1C[C@H](O)C1 [Example 2-56] | ≤ 50%
2 | CCOc1ccc(-c2c(C)nc3sc(C(C)(C)O)nn23)cc1S(=O)(=O)CC(C)(C)O [Example 2-57] | 50 to 80%
3 | [2H]C([2H])([2H])Oc1ccc(-c2c(C)nc3sc(C(C)(C)O)nn23)cc1S(=O)(=O)CC(C)(C)O [Example 2-58] | 50 to 80%
4 | COc1ccc(-c2c(C)nc3sc(C(C)(C)O)nn23)cc1S(=O)(=O)CC(C)(O)CO (stereo not drawn) [Example 2-59] | ≤ 50%
5 | COc1ccc(-c2c(C)nc3sc(C(C)(C)O)nn23)cc1S(=O)(=O)CC(C)(C)C#N [Example 2-60] | ≤ 50%
6 | COc1ccc(-c2c(C)nc3sc(C(C)(C)O)nn23)cc1S(=O)(=O)[C@@H]1CC[C@@H](O)C1 [Example 2-62] | ≤ 50%
7 | COc1ccc(-c2c(C)nc3sc(C(C)(C)O)nn23)cc1S(=O)(=O)CC1(O)CCC1 [Example 2-63] | ≤ 50%
8 | COc1ccc(-c2c(C)nc3sc(C(C)(C)O)nn23)cc1S(=O)(=O)CC1(O)CCC(F)(F)CC1 [Example 2-64] | > 80%
9 | COc1ccc(-c2c(C)nc3sc(C(C)(C)O)nn23)cc1S(=O)(=O)C1CC2(COC2)C1 [Example 2-65] | > 80%
10 | COc1ccc(-c2c(C)nc3sc(C(C)(C)O)nn23)cc1S(=O)(=O)C1(C(C)(C)O)CC1 [Example 2-66] | > 80%
11 | COc1ccc(-c2c(C)nc3sc(C(C)(C)O)nn23)cc1S(=O)(=O)C1(C(C)(C)O)CC(F)(F)C1 [Example 2-67] | > 80%
12 | COc1ccc(-c2c(C)nc3sc(C(C)(C)O)nn23)cc1S(=O)(=O)C1CCC2(CC1)OCCO2 [Example 2-68] | 50 to 80%
13 | COc1ccc(-c2c(C)nc3sc(C(C)(C)O)nn23)cc1S(=O)(=O)C1CC(F)(F)C1 [Example 2-69] | 50 to 80%
14 | COc1ccc(-c2c(C)nc3sc(C(C)(C)O)nn23)cc1S(=O)(=O)[C@@H]1CC[C@](C)(O)C1 [Example 2-70] | ≤ 50%
15 | COc1ccc(-c2c(C)nc3sc(C(C)(C)O)nn23)cc1S(=O)(=O)[C@H]1C[C@@H](C(C)(C)O)C1 [Example 2-71] | > 80%
16 | COc1ccc(-c2c(C)nc3sc(C(C)(C)O)nn23)cc1S(=O)(=O)[C@]1(C2CC2)C[C@H](O)C1 [Example 2-72] | ≤ 50%
17 | COc1ccc(-c2c(C)nc3sc(C(C)(C)O)nn23)cc1S(=O)(=O)[C@H]1C[C@](C)(C(C)(C)O)C1 [Example 2-73] | > 80%
18 | COc1ccc(-c2c(C)nc3sc(C(C)(C)O)nn23)cc1S(=O)(=O)[C@H]1C[C@@](C)(C(C)(C)O)C1 [Example 2-74] | ≤ 50%
19 | COc1ccc(-c2c(C)nc3sc(C(C)(C)O)nn23)cc1S(=O)(=O)[C@]1(C)C[C@H](O)C1 [Example 2-75] | ≤ 50%
20 | COc1ccc(-c2c(C)nc3sc(C(C)(C)O)nn23)cc1S(=O)(=O)[C@H]1C[C@](C)(O)C1 [Example 2-76] | > 80%
21 | Cc1nc2sc(C(C)(C)O)nn2c1-c1ccc(C(F)(F)F)c(S(=O)(=O)[C@H]2C[C@](C)(O)C2)c1 [Example 2-77] | > 80%
22 | COc1ccc(-c2c(C)nc3sc(C(C)(C)O)nn23)cc1S(=O)(=O)[C@H]1C[C@@H]1C(C)(C)O [Example 2-78] | ≤ 50%
23 | COc1ccc(NS(=O)(=O)c2cc(-c3c(C)nc4sc(C(C)(C)O)cn34)ccc2OC)cc1 [Example 2-79] | 50 to 80%
24 | COc1ccc(-c2c(C)nc3sc(C(C)(C)O)cn23)cc1S(=O)(=O)Nc1cccc(O)c1 [Example 2-80] | ≤ 50%

Row | SMILES | inhibition at 0.1 µM
25 | COc1ccc(-c2c(C)nc3sc(C(C)(C)O)cn23)cc1S(=O)(=O)Nc1ccccc1O [Example 2-81] | > 80%
26 | COc1ccc(-c2c(C)nc3sc(C(O)(C4CC4)C4CC4)nn23)cc1S(=O)(=O)[C@H]1C[C@](C)(O)C1 [Example 2-82] | > 80%
27 | Cc1nc2sc(C(C)(C)O)nn2c1-c1cc2c(c(S(=O)(=O)CC(C)(C)O)c1)OCC2 [Example 2-83] | 50 to 80%
28 | COc1ccc(-c2c(C)nc3sc(C(O)(C4CC4)C4CC4)nn23)cc1S(=O)(=O)C1CN(C(=O)OC(C)(C)C)C1 [Example 2-84] | > 80%
29 | COc1ccc(-c2c(C)nc3sc(C(C)(C)O)nn23)cc1S(=O)(=O)Nc1cccnc1 [Example 2-85] | ≤ 50%
30 | COc1ccc(-c2c(C)nc3sc(C(C)(C)O)nn23)cc1S(=O)(=O)Nc1ccc(O)cc1 [Example 2-86] | > 80%
31 | Cc1nc2sc(C(O)(C3CC3)C3CC3)nn2c1-c1ccc(C(F)(F)F)c(S(=O)(=O)CC(C)(C)O)c1 [Example 2-87] | > 80%
32 | [2H]C([2H])([2H])Oc1ccc(-c2c(C)nc3sc(C(C)(C)O)cn23)cc1S(=O)(=O)N[C@H]1CC[C@@H](O)CC1 [Example 2-88] | ≤ 50%
33 | [2H]C([2H])([2H])Oc1ccc(-c2c(C)nc3sc(C(C)(C)O)nn23)cc1S(=O)(=O)N[C@H]1CC[C@@H](O)CC1 [Example 2-89] | 50 to 80%
34 | [2H]C([2H])([2H])Oc1ccc(-c2c(C)nc3sc(C4CC4)nn23)cc1S(=O)(=O)NC(C)(C)CO [Example 2-90] | > 80%
35 | COc1ccc(-c2c(C)nc3sc(C(C)(C)O)nn23)cc1S(=O)(=O)Cc1ccccc1 [Example 2-91] | > 80%
36 | COc1ccc(-c2c(C)nc3sc(C(C)(C)O)nn23)cc1S(=O)(=O)Cc1ccc(F)cc1 [Example 2-92] | 50 to 80%
37 | COc1ccc(-c2c(C)nc3sc(C(C)(C)O)nn23)cc1S(=O)(=O)Cc1ccc(C#N)cc1 [Example 2-93] | 50 to 80%
38 | COc1ccc(-c2c(C)nc3sc(C(C)(C)O)nn23)cc1S(=O)(=O)Cc1cccnc1 [Example 2-94] | 50 to 80%
39 | COc1ccc(-c2c(C)nc3sc(C(C)(C)O)nn23)cc1S(=O)(=O)Cc1ccncc1 [Example 2-95] | 50 to 80%
40 | COc1ccc(-c2c(C)nc3sc(C(O)(C4CC4)C4CC4)nn23)cc1S(=O)(=O)[C@H]1C[C@@H](O)C1 [Example 2-96] | > 80%
41 | [2H]C([2H])([2H])C(O)(CS(=O)(=O)c1cc(-c2c(C)nc3sc(C(C)(C)O)nn23)ccc1C(F)(F)F)C([2H])([2H])[2H] [Example 2-97] | > 80%
42 | COc1ccc(-c2c(C)nc3sc(C(O)(C4CC4)C4CC4)nn23)cc1S(=O)(=O)CC(C)(C)C#N [Example 2-98] | > 80%
43 | Cc1nc2sc(C(C)(C)O)nn2c1-c1ccc(C(F)(F)F)c(S(=O)(=O)NC2(C(C)(C)O)CC2)c1 [Example 3-2] | > 80%
44 | COc1ccc(-c2c(C)nc3sc(C(C)(C)O)nn23)cc1S(=O)(=O)Nc1ccc(C(C)(C)O)cc1 [Example 3-3] | ≤ 50%
45 | COc1ccc(-c2c(C)nc3sc(C(C)(C)O)nn23)cc1S(=O)(=O)C(C)(C)CO [Example 4-1] | > 80%
46 | Cc1nc2sc(C(C)(C)O)nn2c1-c1ccc(C(F)(F)F)c(S(=O)(=O)C2(CO)CC2)c1 [Example 4-2] | > 80%
47 | Cc1nc2sc(C(C)(C)O)nn2c1-c1ccc(C(F)(F)F)c(S(=O)(=O)C(C)(C)CO)c1 [Example 4-3] | > 80%
48 | COc1ccc(-c2c(C)nc3sc(C(C)(C)O)nn23)cc1S(=O)(=O)C1(CO)CC1 [Example 4-4] | 50 to 80%
